Where “and” joins values, the source holds several entries; their conditions need not be identical. Equal entries are not always repeated. Where two headings read alike, the source gives them in different places.
Legend:
BasC S282A mutant = test: [3H]L-alanine transport in BasC S282A proteoliposomes; format: biochemical, Carnobacterium sp AT7; settings: BasC S282A in PLs, WT = 100, n=1-3 and mean
Method: BasC was overexpressed as a C-terminal fusion with GFP in E. coli BL21 Star (DE3) cells grown in LB media. Single point mutations (Supplementary Table 2) were introduced using the QuikChange site-directed mutagenesis kit (Stratagene, San Diego, CA). All mutations were verified by sequencing. Expression was induced with 0.1 mM isopropyl-ß-D-thiogalactopyranoside at 37 °C for 22 h. Cells were harvested at 5000 × g for 15 min at 4 °C and stored at −80 °C until use. Cell pellets were thawed and resuspended in 20 mM Tris-Base, 150 mM NaCl, pH 7.4. […]
For uptake experiments, the desired intraliposomal amino acid concentration was added to the PL suspension, which was then subjected to three freeze/thaw cycles. […] Filters were then washed twice with 2 ml of stop buffer and dried, and the trapped radioactivity was counted. Transport measured in PLs containing no amino acid was subtracted from each data point to calculate the net exchange. […] BasC protein in PLs was determined by Coomassie blue staining in SDS-PAGE gels compared with known amounts of BasC in DDM micelles, determined by BCA assay (Pierce, Rockford, IL) and loaded in the same gel.

hAsc-1 Y280F mutant = molecular target: T1, hAsc-1 Y280F mutant (Homo sapiens, UniProt Q9NS82, Y280F); test: [3H]L-alanine uptake in HeLa cells, hAsc-1 Y280F; format: cell-based; settings: WT = 100, n=1-3 and mean
T1 construct: expressed in transfected cells; host or cells: HeLa
T1 sequence (Q9NS82 1-523 Y280F): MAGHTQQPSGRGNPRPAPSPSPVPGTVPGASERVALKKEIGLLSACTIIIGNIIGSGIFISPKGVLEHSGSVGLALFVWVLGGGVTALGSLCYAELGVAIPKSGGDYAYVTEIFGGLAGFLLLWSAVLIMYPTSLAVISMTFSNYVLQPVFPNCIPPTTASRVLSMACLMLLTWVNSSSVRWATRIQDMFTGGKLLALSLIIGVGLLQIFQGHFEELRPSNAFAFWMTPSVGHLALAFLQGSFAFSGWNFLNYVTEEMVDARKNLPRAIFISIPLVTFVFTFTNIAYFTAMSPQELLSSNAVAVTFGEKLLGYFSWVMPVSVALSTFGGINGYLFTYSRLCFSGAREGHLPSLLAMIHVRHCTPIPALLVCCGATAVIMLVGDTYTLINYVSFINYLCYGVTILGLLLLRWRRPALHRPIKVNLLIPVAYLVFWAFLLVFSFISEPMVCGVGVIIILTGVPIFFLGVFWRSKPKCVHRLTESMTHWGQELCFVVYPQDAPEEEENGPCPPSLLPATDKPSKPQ
T1 sequence (P08195 1-529 partner): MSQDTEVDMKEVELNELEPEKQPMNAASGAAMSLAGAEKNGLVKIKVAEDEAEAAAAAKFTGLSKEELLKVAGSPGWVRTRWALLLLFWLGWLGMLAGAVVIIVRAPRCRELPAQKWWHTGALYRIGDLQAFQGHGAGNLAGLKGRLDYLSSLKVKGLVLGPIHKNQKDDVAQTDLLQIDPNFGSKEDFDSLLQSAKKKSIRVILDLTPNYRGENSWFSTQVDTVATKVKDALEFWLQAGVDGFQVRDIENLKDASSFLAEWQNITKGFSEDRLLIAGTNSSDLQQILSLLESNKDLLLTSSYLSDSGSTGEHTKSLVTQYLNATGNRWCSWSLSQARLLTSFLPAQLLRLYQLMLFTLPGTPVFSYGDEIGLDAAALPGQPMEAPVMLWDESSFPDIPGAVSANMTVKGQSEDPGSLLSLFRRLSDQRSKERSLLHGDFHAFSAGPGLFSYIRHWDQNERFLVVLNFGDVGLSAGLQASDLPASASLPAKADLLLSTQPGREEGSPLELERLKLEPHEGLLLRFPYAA
Excerpt: All mutations were verified by sequencing.

BasC Y236F mutant = test: [3H]L-alanine transport in BasC Y236F proteoliposomes; format: biochemical, Carnobacterium sp AT7
Method: (§1) BasC was overexpressed as a C-terminal fusion with GFP in E. coli BL21 Star (DE3) cells grown in LB media. Single point mutations (Supplementary Table 2) were introduced using the QuikChange site-directed mutagenesis kit (Stratagene, San Diego, CA). All mutations were verified by sequencing. Expression was induced with 0.1 mM isopropyl-ß-D-thiogalactopyranoside at 37 °C for 22 h. Cells were harvested at 5000 × g for 15 min at 4 °C and stored at −80 °C until use. Cell pellets were thawed and resuspended in 20 mM Tris-Base, 150 mM NaCl, pH 7.4. Cells were pelleted again at 5000 × g for 15 min at 4 °C, resuspended in lysis buffer (20 mM Tris-Base, 350 mM NaCl, pH 7.4, 1 mM pefabloc and complete mini protease inhibitor cocktail) (Roche, Basel Switzerland) and then broken using a Cell Disruptor (four cycles at 20,000 psi; Constant Systems Ltd., Daventry, UK). Cell debris was removed by centrifugation (15,000 × g for 1 h at 4 °C), and the supernatant was subjected to ultracentrifugation (200,000 × g for 2 h at 4 °C). The membrane pellet was resuspended in 20 mM Tris-Base, 150 mM NaCl, pH 7.4 and 10% glycerol at a protein concentration of 8–12 mg ml^−1, and then frozen in liquid nitrogen and stored at −80 °C until use.
(§2) BasC-GFP protein was reconstituted in E. coli polar lipids (Sigma-Aldrich, Madrid, Spain), as previously described. Lipids were dried under N2 and suspended in reconstitution buffer (20 mM Tris-Base, 150 mM NaCl, pH 7.4). The suspension was sonicated to clarity and purified BasC protein was added to reach the desired protein to lipid ratio of 1:100 (w:w). To destabilize the liposomes, 1.25% ß-D-octylglucoside was added and the mixture was incubated on ice with occasional agitation for 5 min. DDM and ß-D-octylglucoside were removed by dialysis for 40 h at 4 °C against 100 volumes of dialysis buffer. Proteoliposome (PL) suspensions were frozen in liquid N2 and stored at −80 °C until use.
(§3) For uptake experiments, the desired intraliposomal amino acid concentration was added to the PL suspension, which was then subjected to three freeze/thaw cycles. The extraliposomal amino acid content was then removed by ultracentrifugation (100,000 × g for 1 h at 4 °C) and PLs were resuspended to one-third of the initial volume with reconstitution buffer. Amino acid uptake assays were initiated after mixing 10 μl of cold PLs with 180 μl of transport buffer (20 mM Tris-Base, 150 mM NaCl, pH 7.4 plus 0.5–1 µCi/180 µl of radiolabeled L-amino acid (Perkin Elmer, Waltham, MA)) supplemented with the unlabeled amino acid to the desired concentration. This mixture was then incubated at room temperature for the indicated periods. […] Filters were then washed twice with 2 ml of stop buffer and dried, and the trapped radioactivity was counted. Transport measured in PLs containing no amino acid was subtracted from each data point to calculate the net exchange. […] BasC protein in PLs was determined by Coomassie blue staining in SDS-PAGE gels compared with known amounts of BasC in DDM micelles, determined by BCA assay (Pierce, Rockford, IL) and loaded in the same gel.

BasC K154A mutant = test: [3H]L-alanine transport in BasC K154A proteoliposomes; format: biochemical, Carnobacterium sp AT7; parameters: V/[L-Ala]: unit not given here; settings: for V/[L-Ala]: Eadie-Hofstee, n=1-3 and mean
Method: as §1, §2, §3

SMILES: C[C@H](N)C(=O)O [L-alanine]
- 10 µM [3H]L-alanine/4 mM L-alanine exchange normalized to wild-type (BasC S282A mutant): 124.06 and 127.02 and 133.54
- 10 µM [3H]L-alanine/4 mM L-alanine exchange normalized to wild-type (BasC S282A mutant; mean): 128.21
- transport of 10 µM [3H]L-alanine normalized to wild-type (hAsc-1 Y280F mutant): 133.65 and 128.34 and 128.02 and 123.34
- 10 µM [3H]L-alanine/4 mM L-alanine exchange normalized to wild-type (BasC Y236F mutant; BasC Y236F in PLs, WT = 100, n=1-3 and mean): 116.03 and 123.34 and 111.98 and 142.02
- Vmax (BasC Y236F mutant; Y236F): 4.58 ± 0.17 pmols L-alanine µg protein^−1 s^−1
- increase of cytoplasmic apparent affinity vs. wild-type BasC (BasC Y236F mutant; Y236F): ~ 4 fold
- saturation of the transporter at 4 mM intraliposomal L-alanine (BasC Y236F mutant; Y236F mutant): fully saturated
- increase in function (BasC Y236F mutant; Y236F vs wild-type, extracellular 10 μM [3H]L-alanine against 4 mM intraliposomal L-alanine): about 20%
- Km (BasC Y236F mutant; extracellular side, Y236F, read-out: Km (o)): 50.2 ± 3.44 µM
- Km (BasC Y236F mutant; intracellular side, Y236F, read-out: Km (i)): 560 ± 110 µM
- Vmax (BasC K154A mutant): 0.32 ± 0.04 pmols L-alanine µg protein^−1 s^−1
- reduction of Vmax vs. wild-type (BasC K154A mutant): ~ 10 fold
- reduction of extracellular apparent affinity vs. wild-type (BasC K154A mutant): ~ 10 fold
- V/[L-Ala] (BasC K154A mutant; extracellular side, L-alanine 100 μM): 0.0007 and 0.0010 and 0.0009
- V/[L-Ala] (BasC K154A mutant; extracellular side, L-alanine 500 μM): 0.000458 and 0.000473 and 0.0005
- Km (BasC K154A mutant; extracellular side, 5 µM Nb74, read-out: Km (o)): 474 ± 42 µM
- Km (BasC K154A mutant; intracellular side, 5 µM Nb74, read-out: Km (i)): 2040 ± 370 µM
